Reference: PMC4459825, “ATP Binding and Hydrolysis Properties of ABCB10 and Their Regulation by Glutathione” (PLoS ONE, 2015)

How the values were obtained:
ABCB10 (ABCB10-V5) [1] = biological target: T1, ABCB10 (ABCB10-V5) (Mus musculus, UniProt Q9JI39); test: UV photolabelling of SMPs, anti-V5 IP, ExtrAvidin-HRP blot; details: 3 mM MgCl2, pH 7.5, on ice; covalent after UV irradiation; labelled compound; net of binding and hydrolysis
T1 construct: full-length cDNA in pEF1alpha-V5-His (V5-His tagged), overexpressed in HEK293; detected at approx. 65 kD; assayed in sub-mitochondrial particles, then anti-V5 immunoprecipitated
T1 sequence (Q9JI39 83-715): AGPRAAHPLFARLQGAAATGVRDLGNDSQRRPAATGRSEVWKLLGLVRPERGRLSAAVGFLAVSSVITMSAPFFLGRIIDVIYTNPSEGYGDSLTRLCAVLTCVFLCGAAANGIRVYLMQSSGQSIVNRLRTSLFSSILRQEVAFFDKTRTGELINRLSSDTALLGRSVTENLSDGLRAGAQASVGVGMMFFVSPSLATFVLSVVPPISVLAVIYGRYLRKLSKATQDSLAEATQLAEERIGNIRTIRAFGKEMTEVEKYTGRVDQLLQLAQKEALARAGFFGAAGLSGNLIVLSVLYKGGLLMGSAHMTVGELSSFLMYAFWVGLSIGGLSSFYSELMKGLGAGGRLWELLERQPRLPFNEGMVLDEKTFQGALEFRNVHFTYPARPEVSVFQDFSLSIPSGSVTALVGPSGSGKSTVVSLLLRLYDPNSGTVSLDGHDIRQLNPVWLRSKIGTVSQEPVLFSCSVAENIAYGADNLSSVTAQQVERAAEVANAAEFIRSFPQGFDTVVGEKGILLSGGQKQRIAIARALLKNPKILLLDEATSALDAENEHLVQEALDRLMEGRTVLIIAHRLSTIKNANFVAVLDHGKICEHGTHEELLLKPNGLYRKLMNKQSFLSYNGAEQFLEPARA

ABCB10 (ABCB10-V5) [2] = biological target: T1, ABCB10 (ABCB10-V5); test: competition with 8-azido-ATP [γ] biotin photolabelling in SMPs, anti-V5 IP; details: 50 μM 8-azido-ATP [γ] biotin, 3 mM MgCl2, pH 7.5, on ice; nucleotide binding domain, competitive

| Km (ABCB10 (ABCB10-V5) [1]) | Compound | competition with 8-azido-ATP [γ] biotin photolabelling in SMPs, anti-V5 IP (ABCB10 (ABCB10-V5) [2]) |
| --- | --- | --- |
| 128 µM | 8-azido-ATP [γ] biotin |  |
|  | Nc1ncnc2c1ncn2[C@@H]1O[C@H](COP(=O)(O)OP(=O)(O)OP(=O)(O)O)[C@@H](O)[C@H]1O [ATP] | Increasing concentrations of unlabeled ATP decreased 8-azido-ATP [γ] biotin photolabeling |
|  | Nc1ccn([C@@H]2O[C@H](COP(=O)(O)OP(=O)(O)OP(=O)(O)O)[C@@H](O)[C@H]2O)c(=O)n1 [CTP] | GTP, CTP and TTP could compete with ATP, but their effect was milder |
|  | Nc1nc2c(ncn2[C@@H]2O[C@H](COP(=O)(O)OP(=O)(O)OP(=O)(O)O)[C@@H](O)[C@H]2O)c(=O)[nH]1 [GTP] | GTP, CTP and TTP could compete with ATP, but their effect was milder |
|  | Cc1cn([C@H]2C[C@H](O)[C@@H](COP(=O)(O)OP(=O)(O)OP(=O)(O)O)O2)c(=O)[nH]c1=O [TTP] | GTP, CTP and TTP could compete with ATP, but their effect was milder |
